Experimental data published in ChEMBL document CHEMBL3351418, “In vitro induction of apoptosis by isosclerone from marine-derived fungus Aspergillus fumigatus” (Bioorg Med Chem Lett, 2014).
Calls of active or inactive are those of the source. The calls are words filed in the database; no cut-off is given here.

Assays:
[1] = test system: MCF7; experiment: Induction of apoptosis in human MCF7 cells assessed as increase in caspase-9 expression by Western blot analysis; type: functional, cell-based
[2] = test system: MCF7; experiment: Induction of apoptosis in human MCF7 cells assessed as increase in caspase-3 gene expression by RT-PCR analysis; type: functional, cell-based
[3] = test system: MCF7; experiment: Effect on phosphorylation of Akt in human MCF7 cells at 20 to 60 uM by Western blot analysis; type: cell-based
[4] = test system: MCF7; experiment: Downregulation of PI3K protein expression in human MCF7 cells at 20 to 60 uM by Western blot analysis; type: functional, cell-based
[5] = test system: MCF7; experiment: Induction of apoptosis in human MCF7 cells assessed as up-regulation of Bax gene expression at 20 to 60 uM after 24 hrs by RT-PCR analysis; type: functional, cell-based
[6] = biological target: T1, Inhibitor of nuclear factor kappa-B kinase subunit beta (Homo sapiens) (UniProt O14920); experiment: Inhibition of human IKKbeta activation in human MCF7 cells by Western blot analysis; type: cell-based
T1 sequence (whole entry): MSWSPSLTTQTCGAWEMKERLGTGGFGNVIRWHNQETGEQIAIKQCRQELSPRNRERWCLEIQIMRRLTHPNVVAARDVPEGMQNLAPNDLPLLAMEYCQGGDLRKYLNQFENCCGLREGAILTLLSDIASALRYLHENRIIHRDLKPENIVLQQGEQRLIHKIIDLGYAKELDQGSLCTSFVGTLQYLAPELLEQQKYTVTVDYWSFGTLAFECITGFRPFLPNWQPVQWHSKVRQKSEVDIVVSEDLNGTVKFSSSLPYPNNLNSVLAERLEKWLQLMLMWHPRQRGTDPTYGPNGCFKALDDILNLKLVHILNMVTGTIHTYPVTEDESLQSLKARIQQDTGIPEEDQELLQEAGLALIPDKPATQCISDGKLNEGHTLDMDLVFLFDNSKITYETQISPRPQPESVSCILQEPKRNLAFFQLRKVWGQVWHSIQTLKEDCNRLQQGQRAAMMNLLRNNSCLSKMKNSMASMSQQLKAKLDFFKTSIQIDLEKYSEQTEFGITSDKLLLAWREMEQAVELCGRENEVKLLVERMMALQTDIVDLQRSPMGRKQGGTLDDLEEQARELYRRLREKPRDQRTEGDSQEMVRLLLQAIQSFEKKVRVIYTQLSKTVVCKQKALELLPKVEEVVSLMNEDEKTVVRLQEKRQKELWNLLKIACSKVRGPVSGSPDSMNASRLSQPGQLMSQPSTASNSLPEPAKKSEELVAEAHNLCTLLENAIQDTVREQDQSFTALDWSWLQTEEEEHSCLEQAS

[7] = test system: MCF7; experiment: Cytotoxicity against human MCF7 cells assessed as cell viability at 20 uM after 36 hrs by MTT assay (Rvb =100%); type: functional; conditions: MCF7, 36 h, read-out: Activity
[8] = test system: MCF7; experiment: Cytotoxicity against human MCF7 cells assessed as cell viability after 24 to 36 hrs by MTT assay; type: functional, cell-based
[9] = biological target: T2, Inhibitor of nuclear factor kappa-B kinase subunit alpha (Homo sapiens) (UniProt O15111); experiment: Inhibition of human IKK expression in human MCF7 cells after 24 hrs by Western blot analysis; type: cell-based
T2 sequence (whole entry): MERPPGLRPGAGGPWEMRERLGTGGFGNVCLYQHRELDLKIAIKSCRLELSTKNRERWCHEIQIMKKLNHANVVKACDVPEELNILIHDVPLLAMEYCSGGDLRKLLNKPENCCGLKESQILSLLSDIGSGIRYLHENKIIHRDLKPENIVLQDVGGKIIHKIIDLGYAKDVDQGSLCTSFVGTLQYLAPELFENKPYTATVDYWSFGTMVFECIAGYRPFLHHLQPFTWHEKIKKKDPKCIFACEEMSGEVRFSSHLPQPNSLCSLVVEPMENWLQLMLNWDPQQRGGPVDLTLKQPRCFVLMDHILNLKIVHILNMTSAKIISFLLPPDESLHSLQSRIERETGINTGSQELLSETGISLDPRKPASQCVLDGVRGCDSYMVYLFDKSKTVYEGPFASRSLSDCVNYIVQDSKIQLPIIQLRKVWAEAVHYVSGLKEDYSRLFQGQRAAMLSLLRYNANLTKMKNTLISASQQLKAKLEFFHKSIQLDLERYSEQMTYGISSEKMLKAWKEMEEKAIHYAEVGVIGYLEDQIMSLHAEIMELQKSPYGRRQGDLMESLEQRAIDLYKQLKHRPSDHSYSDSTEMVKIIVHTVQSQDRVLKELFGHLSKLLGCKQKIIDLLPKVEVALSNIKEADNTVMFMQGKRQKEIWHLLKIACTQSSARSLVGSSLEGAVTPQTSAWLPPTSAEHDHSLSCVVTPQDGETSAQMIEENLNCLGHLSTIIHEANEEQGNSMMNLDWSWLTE

[10] = biological target: Nuclear factor NF-kappa-B complex (Homo sapiens) (UniProt Q00653+P19838+Q04206); experiment: Inhibition of NF-kappaB activation in human MCF7 cells; type: cell-based
Sequence of Nuclear factor NF-kappa-B complex (Homo sapiens) (P19838 whole entry, looked up): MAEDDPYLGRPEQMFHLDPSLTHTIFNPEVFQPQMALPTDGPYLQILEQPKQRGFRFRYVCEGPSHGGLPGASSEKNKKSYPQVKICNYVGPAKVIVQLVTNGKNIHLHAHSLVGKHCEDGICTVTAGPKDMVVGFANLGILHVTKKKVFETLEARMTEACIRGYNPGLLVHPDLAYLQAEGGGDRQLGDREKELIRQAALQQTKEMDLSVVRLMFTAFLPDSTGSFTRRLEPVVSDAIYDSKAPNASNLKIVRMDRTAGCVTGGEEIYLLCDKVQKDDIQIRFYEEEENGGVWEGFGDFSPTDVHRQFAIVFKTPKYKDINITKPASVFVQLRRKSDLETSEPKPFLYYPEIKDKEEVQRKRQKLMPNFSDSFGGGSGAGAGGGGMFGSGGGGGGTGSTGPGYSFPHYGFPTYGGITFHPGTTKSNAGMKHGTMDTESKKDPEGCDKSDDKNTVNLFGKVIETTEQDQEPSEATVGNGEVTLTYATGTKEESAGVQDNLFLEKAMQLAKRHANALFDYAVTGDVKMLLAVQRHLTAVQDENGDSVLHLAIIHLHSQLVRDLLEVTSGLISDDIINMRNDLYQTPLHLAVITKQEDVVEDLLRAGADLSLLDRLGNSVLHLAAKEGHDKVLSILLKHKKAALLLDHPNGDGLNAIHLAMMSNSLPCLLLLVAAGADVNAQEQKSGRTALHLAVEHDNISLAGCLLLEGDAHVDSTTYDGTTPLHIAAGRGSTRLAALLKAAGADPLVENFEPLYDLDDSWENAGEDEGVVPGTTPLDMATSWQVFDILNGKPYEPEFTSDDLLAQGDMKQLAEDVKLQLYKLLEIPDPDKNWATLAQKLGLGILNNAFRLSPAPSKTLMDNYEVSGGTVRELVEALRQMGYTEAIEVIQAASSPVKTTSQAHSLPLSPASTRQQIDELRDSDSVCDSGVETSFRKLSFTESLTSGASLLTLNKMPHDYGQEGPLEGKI
Sequence of Nuclear factor NF-kappa-B complex (Homo sapiens) (Q00653 whole entry, looked up): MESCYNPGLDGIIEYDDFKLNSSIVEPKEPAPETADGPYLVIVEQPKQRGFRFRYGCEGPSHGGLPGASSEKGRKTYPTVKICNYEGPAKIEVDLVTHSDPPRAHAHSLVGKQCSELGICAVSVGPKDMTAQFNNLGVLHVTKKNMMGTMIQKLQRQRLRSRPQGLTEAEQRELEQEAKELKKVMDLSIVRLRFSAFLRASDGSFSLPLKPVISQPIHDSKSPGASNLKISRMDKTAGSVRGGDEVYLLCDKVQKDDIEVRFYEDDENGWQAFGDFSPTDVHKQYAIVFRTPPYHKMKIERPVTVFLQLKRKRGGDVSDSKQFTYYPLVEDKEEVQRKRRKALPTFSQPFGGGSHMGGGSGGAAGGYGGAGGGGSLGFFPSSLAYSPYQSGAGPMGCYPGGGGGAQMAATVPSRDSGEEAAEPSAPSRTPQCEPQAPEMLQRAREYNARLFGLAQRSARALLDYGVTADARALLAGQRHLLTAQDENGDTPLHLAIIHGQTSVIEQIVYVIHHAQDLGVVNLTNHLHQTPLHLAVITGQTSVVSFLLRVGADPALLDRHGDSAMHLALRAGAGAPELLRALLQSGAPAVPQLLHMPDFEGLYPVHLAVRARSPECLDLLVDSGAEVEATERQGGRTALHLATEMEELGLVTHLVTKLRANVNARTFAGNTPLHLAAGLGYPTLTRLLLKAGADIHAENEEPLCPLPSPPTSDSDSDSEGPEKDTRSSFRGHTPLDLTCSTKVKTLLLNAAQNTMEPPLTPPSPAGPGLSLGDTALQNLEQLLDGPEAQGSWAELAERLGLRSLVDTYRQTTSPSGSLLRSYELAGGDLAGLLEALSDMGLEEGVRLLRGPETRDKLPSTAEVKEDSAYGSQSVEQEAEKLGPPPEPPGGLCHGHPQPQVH
Sequence of Nuclear factor NF-kappa-B complex (Homo sapiens) (Q04206 whole entry, looked up): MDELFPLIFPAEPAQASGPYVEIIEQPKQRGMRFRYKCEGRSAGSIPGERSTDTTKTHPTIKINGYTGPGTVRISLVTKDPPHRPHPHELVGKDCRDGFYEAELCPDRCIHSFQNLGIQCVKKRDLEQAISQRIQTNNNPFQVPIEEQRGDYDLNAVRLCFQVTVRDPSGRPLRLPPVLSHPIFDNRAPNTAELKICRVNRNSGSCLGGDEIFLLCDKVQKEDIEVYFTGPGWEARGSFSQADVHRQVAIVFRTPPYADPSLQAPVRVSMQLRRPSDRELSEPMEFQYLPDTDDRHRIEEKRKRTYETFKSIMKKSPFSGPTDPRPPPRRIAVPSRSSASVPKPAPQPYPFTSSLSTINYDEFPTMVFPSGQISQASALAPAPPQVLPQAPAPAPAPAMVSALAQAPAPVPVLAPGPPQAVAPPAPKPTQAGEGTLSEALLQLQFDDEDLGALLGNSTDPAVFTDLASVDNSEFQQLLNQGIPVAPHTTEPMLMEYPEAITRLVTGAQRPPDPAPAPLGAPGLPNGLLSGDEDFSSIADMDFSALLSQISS

[11] = test system: MCF7; experiment: Inhibition of P65 protein expression in human MCF7 cells after 24 hrs by Western blot analysis; type: functional, cell-based
[12] = test system: MCF7; experiment: Induction of apoptosis in human MCF7 cells assessed as increase in caspase-9 gene expression by RT-PCR analysis; type: functional, cell-based
[13] = test system: MCF7; experiment: Cytotoxicity against human MCF7 cells assessed as cell viability at 60 uM after 36 hrs by MTT assay (Rvb =100%); type: functional; conditions: MCF7, 36 h, read-out: Activity
[14] = biological target: Apoptosis regulator Bcl-2 (Homo sapiens, UniProt P10415); experiment: Binding affinity to Bcl-2 (unknown origin)
Sequence of Apoptosis regulator Bcl-2 (P10415 whole entry): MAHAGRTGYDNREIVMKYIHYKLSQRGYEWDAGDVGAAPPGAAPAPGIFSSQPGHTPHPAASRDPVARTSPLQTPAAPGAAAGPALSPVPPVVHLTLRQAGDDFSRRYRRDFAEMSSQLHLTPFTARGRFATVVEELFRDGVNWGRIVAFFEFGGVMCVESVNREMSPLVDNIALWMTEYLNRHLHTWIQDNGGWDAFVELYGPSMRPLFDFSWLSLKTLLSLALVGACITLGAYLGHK

[15] = biological target: T2, Inhibitor of nuclear factor kappa-B kinase subunit alpha (Homo sapiens); experiment: Inhibition of human IKKalpha activation in human MCF7 cells by Western blot analysis; type: cell-based
[16] = test system: MCF7; experiment: Induction of apoptosis in human MCF7 cells assessed as increase in mitochondrial Apaf-1 release at 20 to 60 uM after 24 hrs by Western blot analysis; type: functional, cell-based
[17] = test system: MCF7; experiment: Induction of apoptosis in human MCF7 cells assessed as down-regulation of Bcl-2 protein expression at 20 to 60 uM after 24 hrs by Western blot analysis; type: functional, cell-based
[18] = test system: MCF7; experiment: Induction of apoptosis in human MCF7 cells assessed as increase in DNA damage after 24 hrs by Hoechst staining based inverted fluorescent microscopy; type: functional, cell-based
[19] = test system: MCF7; experiment: Downregulation of Akt gene expression in human MCF7 cells at 20 to 60 uM by RT-PCR analysis; type: functional, cell-based
[20] = test system: MCF7; experiment: Induction of apoptosis in human MCF7 cells assessed as increase in caspase-3 expression by Western blot analysis; type: functional, cell-based
[21] = test system: MCF7; experiment: Induction of apoptosis in human MCF7 cells assessed as increase in DNA fragmentation […] by agarose gel electrophoresis; type: functional, cell-based
[22] = test system: MCF7; experiment: Cytotoxicity against human MCF7 cells assessed as cell viability at 20 uM after 24 hrs by MTT assay (Rvb =100%); type: functional; conditions: MCF7, 24 h, read-out: Activity
[23] = test system: MCF7; experiment: Cytotoxicity against human MCF7 cells assessed as cell viability at 20 uM by MTT assay; type: functional, cell-based; conditions: TDE = time-dependent effect
[24] = test system: MCF7; experiment: Induction of apoptosis in human MCF7 cells assessed as increase in caspase-8 gene expression by RT-PCR analysis; type: functional, cell-based
[25] = test system: MCF7; experiment: Downregulation of Akt protein expression in human MCF7 cells at 20 to 60 uM by Western blot analysis; type: functional, cell-based
[26] = test system: MCF7; experiment: Inhibition of P50 protein expression in human MCF7 cells after 24 hrs by Western blot analysis; type: functional, cell-based
[27] = test system: MCF7; experiment: Induction of apoptosis in human MCF7 cells assessed as up-regulation of Bax protein expression at 20 to 60 uM after 24 hrs by Western blot analysis; type: functional, cell-based
[28] = test system: MCF7; experiment: Cytotoxicity against human MCF7 cells assessed as cell viability at 60 uM after 24 hrs by MTT assay (Rvb =100%); type: functional; conditions: MCF7, 24 h, read-out: Activity
[29] = test system: MCF7; experiment: Cytotoxicity against human MCF7 cells assessed as cell viability at 40 uM after 24 hrs by MTT assay (Rvb =100%); type: functional; conditions: MCF7, 24 h, read-out: Activity
[30] = test system: MCF7; experiment: Downregulation of PI3K gene expression in human MCF7 cells at 20 to 60 uM by RT-PCR analysis; type: functional, cell-based
[31] = test system: MCF7; experiment: Cytotoxicity against human MCF7 cells assessed as cell viability at 40 uM after 36 hrs by MTT assay (Rvb =100%); type: functional; conditions: MCF7, 36 h, read-out: Activity
[32] = biological target: T3, Caspase-3 (Homo sapiens, UniProt P42574); experiment: Binding affinity to procaspase-3 (unknown origin)
T3 sequence (P42574 whole entry): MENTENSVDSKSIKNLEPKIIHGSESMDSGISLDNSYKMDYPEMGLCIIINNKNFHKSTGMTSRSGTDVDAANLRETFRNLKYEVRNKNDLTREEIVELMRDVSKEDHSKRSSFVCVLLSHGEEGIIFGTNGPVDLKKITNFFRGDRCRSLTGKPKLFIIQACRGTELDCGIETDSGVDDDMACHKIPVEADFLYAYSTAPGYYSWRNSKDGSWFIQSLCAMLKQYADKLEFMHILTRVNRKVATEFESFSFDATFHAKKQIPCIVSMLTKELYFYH

[33] = test system: MCF7; experiment: Induction of apoptosis in human MCF7 cells assessed as increase in mitochondrial cytochrome C release at 20 to 60 uM after 24 hrs by Western blot analysis; type: functional, cell-based
[34] = test system: MCF7; experiment: Induction of apoptosis in human MCF7 cells assessed as increase in caspase-8 expression by Western blot analysis; type: functional, cell-based

## O=C1CC[C@H](O)c2cccc(O)c21
[1]
  Activity: Dose-dependent effect
[2]
  Activity: Dose-dependent effect
[3]
  inhibition: inactive
[4]
  inhibition: Active
[5]
  Activity: Active
[6]
  inhibition: Active
[7]
  viability at 20 µM: 87%
[8]
  inhibition: Dose-dependent effect
[9]
  inhibition: Active
[10]
  inhibition: Dose-dependent effect
[11]
  inhibition: Dose-dependent effect
[12]
  Activity: Dose-dependent effect
[13]
  viability at 60 µM: 50%
[14]
  Ki: 475 µM
[15]
  inhibition: Active
[16]
  Activity: Active
[17]
  inhibition: Active
[18]
  Activity: Dose-dependent effect
[19]
  inhibition: Active
[20]
  Activity: Dose-dependent effect
[21]
  Activity: Dose-dependent effect
[22]
  viability at 20 µM: 97%
[23]
  inhibition: tde
[24]
  Activity: Dose-dependent effect
[25]
  inhibition: Active
[26]
  inhibition: Dose-dependent effect
[27]
  Activity: Active
[28]
  viability at 60 µM: 70%
[29]
  viability at 40 µM: 89%
[30]
  inhibition: Active
[31]
  viability at 40 µM: 66%
[32]
  Ki: 732 µM
[33]
  Activity: Active
[34]
  Activity: Dose-dependent effect
